Results: the NIST ThermoML archive (doi:10.1016/j.jct.2008.01.018)

Assay: refractive index (Na D-line) (dimensionless); mn = molality of the nth substance listed, in mol/kg
Conditions: 298.15 K, 101 kPa, Liquid, Standard Abbe refractometry

O=P([O-])(O)O.[Na+] [sodium dihydrogen phosphate] + O
Conditions | refractive index
m1 = 0.0207 | 1.3331
m1 = 0.0415 | 1.3334
m1 = 0.0697 | 1.3338
m1 = 0.1051 | 1.3342
m1 = 0.1397 | 1.3351
m1 = 0.1901 | 1.3357
m1 = 0.2357 | 1.3363
m1 = 0.2947 | 1.3373
m1 = 0.3516 | 1.3382
m1 = 0.433 | 1.3393
m1 = 0.5113 | 1.3405
m1 = 0.5842 | 1.3416
m1 = 0.653 | 1.3425
m1 = 0.6999 | 1.3432
m1 = 0.7919 | 1.3442
m1 = 0.9206 | 1.3459
m1 = 1.175 | 1.3491
m1 = 1.18 | 1.3491
m1 = 1.447 | 1.3524
m1 = 1.794 | 1.3565
m1 = 2.079 | 1.3597
m1 = 2.396 | 1.3629
m1 = 2.398 | 1.3627
